Legend:
Test in all cases: whole plant or invertebrate
Type in all cases: in vivo
[1] = system: silverleaf whitefly (Bemisia argentifolii Bellows and Perring); details: Table 2B
Method in brief: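 Whitefly-egg-infested 12–14-day-old cotton plants sprayed with compound in 10% acetone/90% water plus 300 ppm non-ionic surfactant, in triplicate. Plants then held 13 days at 28 °C and 50–70% relative humidity before mortality assessment.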

[2] = system: western flower thrip (Frankliniella occidentalis Pergande); details: single compound, spray, 7 days
Method in brief: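 Bean plants aged 5–7 days received a spray of test solution (10% acetone, 90% water, 300 ppm surfactant), in triplicate. Adult thrips (22–27 per unit) were introduced once the plants had dried for 1 h. Incubation lasted 7 days at 25° C and 45–55% RH.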

[3] = system: potato leafhopper (Empoasca fabae Harris); details: alone
Method in brief: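 Contact and/or systemic test: five adult leafhoppers aged 18–21 days were released onto Longio bean plants 1 h after spraying. The spray was 1 mL per unit in acetone/water (10:90) with 300 ppm non-ionic surfactant, run in triplicate. Plants were kept 6 days in a growth chamber at 19–21 °C and 50–70% humidity.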

[4] = system: corn planthopper (Peregrines maidis); details: Corn Plant Hopper
Method in brief: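 Contact/systemic test on corn planthopper: 10–20 nymphs (18- to 20-day-old) released onto young maize plants 1 h after spraying, with three replicate units per treatment. Spray solution was acetone/water 10:90 containing 300 ppm non-ionic spreader; units kept 6 days at 19-21° C., 50-70% RH.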

[5] = system: cotton melon aphid (Aphis gossypii Glover)
Method in brief: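 Sprays in acetone–water with 300 ppm non-ionic surfactant, at ppm concentrations, applied to aphid-infested (30–40 per plant) 6–7-day cotton, in triplicate. Evaluation after 6 days in a growth chamber at 19–21 °C and 50–70% relative humidity, covering contact and/or systemic action.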

[6] = system: green peach aphid (Myzus persicae Sulzer); details: Green Peach Aphid
Method in brief: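 Compounds formulated in 10% acetone/water with 300 ppm X-77 surfactant were atomized onto aphid-infested radish seedlings, with three replicates per treatment. Infestation was 30–40 aphids transferred on excised leaf pieces, covering contact and systemic exposure. Test units stayed 6 days in a growth chamber at 19–21 °C and 50–70% relative humidity.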

Which “% mortality (obs)” value ([1]; rate 1 ppm) does the source give for Acetamiprid here?
Its value is 3%.

What about the “% mortality (obs)” value ([1]; rate 5 ppm) of the same substance?
Its value is 45%.

And the “% mortality (obs)” value ([1]; rate 20 ppm)?
The value was 83%.

What about the “% mortality (obs)” value ([2]; rate 1 ppm) of the same substance?
The value was 70%.

And the “% mortality (obs)” value ([2]; rate 100 ppm)?
Its value is 90%.

What about the “% mortality (obs)” value ([2]; rate 3000 ppm) of the same substance?
The value was 100%.

And the “% mortality (obs)” value ([3]; rate 1 ppm)?
Its value is 27%.

And the “% mortality (obs)” value ([3]; rate 4 ppm)?
The value was 60%.

And the “% mortality (obs)” value ([3]; rate 12 ppm)?
The value was 87%.

And the “% mortality (obs)” value ([4]; rate 0.3 ppm)?
Its value is 43%.

What about the “% mortality (obs)” value ([4]; rate 0.4 ppm) of the same substance?
Its value is 85%.

What about the “% mortality (obs)” value ([4]; rate 0.5 ppm) of the same substance?
Its value is 100%.

And the “% mortality (obs)” value ([5]; rate 0.02 ppm)?
The value was 42%.

And the “% mortality (obs)” value ([5]; rate 0.08 ppm)?
Its value is 67%.

What about the “% mortality (obs)” value ([5]; rate 0.4 ppm) of the same substance?
Its value is 100%.

What about the “% mortality (obs)” value ([6]; rate 0.2 ppm) of the same substance?
The value was 27%.

And the “% mortality (obs)” value ([6]; rate 0.4 ppm)?
Its value is 52%.

And the “% mortality (obs)” value ([6]; rate 0.6 ppm)?
Its value is 46%.

How did the “% mortality (obs)” value ([1]; rate 0.1 ppm) turn out when Cartap was run?
Its value is 0%.

What about the “% mortality (obs)” value ([1]; rate 0.2 ppm) of the same substance?
The value was 0%.

What about the “% mortality (obs)” value ([1]; rate 0.5 ppm) of the same substance?
The value was 0%.

And the “% mortality (obs)” value ([2]; rate 1 ppm)?
The value was 40%.

What about the “% mortality (obs)” value ([2]; rate 1000 ppm) of the same substance?
The value was 100%.

And the “% mortality (obs)” value ([2]; rate 3000 ppm)?
Its value is 100%.

And the “% mortality (obs)” value ([3]; rate 0.1 ppm)?
Its value is 20%.

And the “% mortality (obs)” value ([3]; rate 1 ppm)?
The value was 73%.

What about the “% mortality (obs)” value ([3]; rate 10 ppm) of the same substance?
The value was 100%.

What about the “% mortality (obs)” value ([4]; rate 0.3 ppm) of the same substance?
The value was 100%.

What about the “% mortality (obs)” value ([4]; rate 3 ppm) of the same substance?
The value was 100%.

And the “% mortality (obs)” value ([4]; rate 30 ppm)?
Its value is 100%.

And the “% mortality (obs)” value ([5]; rate 0.2 ppm)?
Its value is 29%.

And the “% mortality (obs)” value ([5]; rate 2 ppm)?
Its value is 34%.

What about the “% mortality (obs)” value ([5]; rate 200 ppm) of the same substance?
Its value is 83%.

What about the “% mortality (obs)” value ([6]; rate 0.2 ppm) of the same substance?
The value was 11%.

And the “% mortality (obs)” value ([6]; rate 0.4 ppm)?
Its value is 26%.

What about the “% mortality (obs)” value ([6]; rate 0.6 ppm) of the same substance?
Its value is 17%.

Which “% mortality (obs)” value ([1]; rate 10 ppm) does the source give for Chlorfenapyr here?
The value was 6%.

And the “% mortality (obs)” value ([1]; rate 100 ppm)?
Its value is 14%.

What about the “% mortality (obs)” value ([1]; rate 1000 ppm) of the same substance?
The value was 18%.

And the “% mortality (obs)” value ([2]; rate 5 ppm)?
The value was 40%.

What about the “% mortality (obs)” value ([2]; rate 20 ppm) of the same substance?
The value was 70%.

And the “% mortality (obs)” value ([2]; rate 150 ppm)?
Its value is 90%.

And the “% mortality (obs)” value ([3]; rate 1 ppm)?
The value was 73%.

What about the “% mortality (obs)” value ([3]; rate 5 ppm) of the same substance?
Its value is 100%.

And the “% mortality (obs)” value ([3]; rate 20 ppm)?
Its value is 100%.

What about the “% mortality (obs)” value ([4]; rate 1.5 ppm) of the same substance?
Its value is 31%.

What about the “% mortality (obs)” value ([4]; rate 2.5 ppm) of the same substance?
The value was 15%.

What about the “% mortality (obs)” value ([4]; rate 3.5 ppm) of the same substance?
Its value is 11%.

And the “% mortality (obs)” value ([5]; rate 1 ppm)?
Its value is 27%.

And the “% mortality (obs)” value ([5]; rate 10 ppm)?
The value was 57%.

What about the “% mortality (obs)” value ([5]; rate 150 ppm) of the same substance?
The value was 67%.

What about the “% mortality (obs)” value ([6]; rate 1.5 ppm) of the same substance?
The value was 22%.

What about the “% mortality (obs)” value ([6]; rate 7 ppm) of the same substance?
The value was 36%.

What about the “% mortality (obs)” value ([6]; rate 35 ppm) of the same substance?
Its value is 100%.

Fipronil was tested. Which “% mortality (obs)” value ([1]; rate 50 ppm) did it give?
Its value is 1%.

And the “% mortality (obs)” value ([1]; rate 100 ppm)?
Its value is 0%.

And the “% mortality (obs)” value ([1]; rate 1000 ppm)?
The value was 13%.

And the “% mortality (obs)” value ([2]; rate 0.5 ppm)?
Its value is 100%.

What about the “% mortality (obs)” value ([2]; rate 2 ppm) of the same substance?
Its value is 100%.

And the “% mortality (obs)” value ([2]; rate 10 ppm)?
Its value is 100%.

And the “% mortality (obs)” value ([3]; rate 0.5 ppm)?
Its value is 7%.

What about the “% mortality (obs)” value ([3]; rate 1 ppm) of the same substance?
Its value is 20%.

What about the “% mortality (obs)” value ([3]; rate 1.5 ppm) of the same substance?
Its value is 27%.

And the “% mortality (obs)” value ([4]; rate 0.5 ppm)?
The value was 5%.

What about the “% mortality (obs)” value ([4]; rate 1 ppm) of the same substance?
The value was 41%.

And the “% mortality (obs)” value ([4]; rate 1.5 ppm)?
The value was 15%.

And the “% mortality (obs)” value ([5]; rate 2 ppm)?
Its value is 27%.

What about the “% mortality (obs)” value ([5]; rate 4 ppm) of the same substance?
The value was 44%.

And the “% mortality (obs)” value ([5]; rate 8 ppm)?
Its value is 85%.

What about the “% mortality (obs)” value ([6]; rate 2 ppm) of the same substance?
The value was 17%.

And the “% mortality (obs)” value ([6]; rate 4 ppm)?
Its value is 31%.

What about the “% mortality (obs)” value ([6]; rate 8 ppm) of the same substance?
The value was 50%.

Reference: patent US8937089B2, “Synergistic mixtures of anthranilamide invertebrate pest control agents” (priority 2004, dated 2015)
